According to publication PMC10486429, “Investigations Using Albumin Binders to Modify the Tissue Distribution Profile of Radiopharmaceuticals Exemplified with Folate Radioconjugates” (Cancers, 2023):

What was measured:
[1] = Blood clearance of 177Lu-DOTA-ALBs in FVB mice; details: for Time to Reach 50% IA (T50%IA): blood activity, value at 3 min set as 100%
Method: Immunocompetent female mice (FVB) at the age of 5 to 6 weeks were purchased from Charles River Laboratories (Sulzfeld, Germany) and acclimatized upon arrival for at least 7 days. FVB mice were intravenously injected with ^177Lu-DOTA-ALBs (25 MBq, 1 nmol/mouse, 100 µL PBS containing 0.05% bovine serum albumin (BSA) and 25 μg L-ascorbic acid, n = 3−6 mice per radioligand) followed by the first blood sampling of 3 × 1 μL from a different tail vein 3 min after injection (set as t0). Additional blood samples were taken at defined time points after injection. All collected blood samples from individual mice were measured at the same time using a γ-counter (PerkinElmer Wallac Wizard 1480, Waltham, MA, USA) to obtain decay-corrected values. The counts were set in relation to the initial counts at t0 (set as 100%) to prepare clearance curves by plotting the percentage of retained activity in the blood (% IA) against the time. The blood clearance curves were investigated until the counts of the blood samples were below the linear detection range (Supplementary Materials Section S6). An analysis was performed using GraphPad Prism software (version 8.0) by fitting a non-linear regression curve (exponential, two-phase) to the data points to calculate the serum half-lives. The areas under the curves (AUC0–7days) were calculated by integrating the blood excretion curves over 7 days and setting into relation with the AUC0–7days value obtained for [^177Lu]Lu-DOTA-ALB-1 (set as 1.0) to obtain relative AUC0–7days values. […]
S6. Blood Clearance of 177Lu-DOTA-ALBs
Purpose: The 177Lu-labeled DOTA-ALBs were investigated in vivo in order to assess their blood clearance profile.
Methods: Female, immunocompetent FVB mice were obtained from Charles River Laboratories (Sulzfeld, Germany), at the age of 5–6 weeks and acclimatized for at least 7 days before the start of the in vivo studies. Blood clearance of 177Lu-labeled DOTA-ALBs were determined in n=3–6 mice per radioligand. The radiolabeled DOTA-ALBs ( 25 MBq/nmol) were formulated in PBS pH 7.4 containing 0.05% bovine serum albumin (BSA) and L-ascorbic acid (25 µg per 25 MBq) to prevent radiolytic degradation. Mice were intravenously injected with the respective 177Lu-labeled DOTA-ALB (25 MBq, 1 nmol, 100 µL per mouse). The blood clearance was determined by taking blood samples (3 × 1 µL) from the tail vein using 1 µL-capillaries at 3 min after injection (set as t0) as well as at various timepoints over the following 48 h. In the case of [177Lu]Lu-DOTA-ALB-1 and [177Lu]Lu-DOTA-ALB-3, blood sampling was additionally performed at later time points up to 3 and 7 days, respectively. The collected blood samples were measured in a γ-coun-ter (PerkinElmer, Wallac Wizard 1480, Waltham, MA, USA).

folate receptor (FR) = target: T1, folate receptor (FR) (Homo sapiens, UniProt P15328); assay: FR-binding affinity (KD) of 177Lu-RedFols on IGROV-1 cells; details: 1 h at 4 °C, read-out: KD Value (95% CI)
T1 construct: endogenous in cells; host or cells: IGROV-1 (human ovarian carcinoma cell line), intact cells on ice
T1 sequence (P15328 25-257): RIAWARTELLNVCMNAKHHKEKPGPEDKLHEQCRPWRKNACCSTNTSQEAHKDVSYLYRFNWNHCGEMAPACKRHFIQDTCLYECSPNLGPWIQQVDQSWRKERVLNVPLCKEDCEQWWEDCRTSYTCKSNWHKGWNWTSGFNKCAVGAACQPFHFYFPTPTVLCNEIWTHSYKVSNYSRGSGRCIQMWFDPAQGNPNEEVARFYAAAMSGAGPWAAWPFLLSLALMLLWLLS
Method: (100 µM) to block FRs on the cell surface. The IGROV-1 tumor cells were incubated for 1 h at 4 °C on a shaker, followed by removal of the supernatants and rinsing of the cells twice with PBS. After lysis of the cells with NaOH solution (1 M, 500 µL), the samples were counted for activity using a γ-counter (Wallac Wizard 1480, Perkin Elmer, Waltham, MA, USA). The cpm of the specific binding (determined by subtracting the cpm of the non-specific binding from the cpm of total binding), were plotted against the molar con-centration of the added folate radioconjugates. Non-linear regression analysis was per-formed using GraphPad Prism software (version 8) to obtain KD values from one curve of 3−5 independent experiments, each performed in triplicates.
Results: The results are reported in the main article. […]

[2] = FVB mice, i.v., 25 MBq, 1 nmol, two-phase exponential fit of blood activity

Compound	Rel. Blood AUC0–7days ([1]; mouse, in vivo)	% Phase a ([1]; mouse, in vivo, iv)	% Phase b ([1]; mouse, in vivo, iv)	Blood AUC0–7days ([1]; mouse, in vivo, iv)	Half-Life Phase a ([1]; mouse, in vivo, iv)	Half-Life Phase b ([1]; mouse, in vivo, iv)	Kd (folate receptor (FR))	other results
O=C(O)CN1CCN(CC(=O)O)CCN(CC(=O)NCCC(=O)N[C@@H](CCCCNC(=O)c2ccc(CNC(=O)CCCCc3ccc(I)cc3)cc2)C(=O)O)CCN(CC(=O)O)CC1.[177Lu] [[^177Lu]Lu-DOTA-ALB-25]	0.3	41%	59%	425 % IA× h	0.7 h	4.5 h	–	–
O=C(O)CN1CCN(CC(=O)O)CCN(CC(=O)NCCC(=O)N[C@@H](CCCCNC(=O)c2ccc(CNC(=O)CCCc3ccc(I)cc3)cc2)C(=O)O)CCN(CC(=O)O)CC1.[177Lu] [[^177Lu]Lu-DOTA-ALB-3]	–	–	–	–	–	–	–	Retention of activity in the blood ([1]; FVB mice, 0 h p.i. (t0 set as 100%)): 100 % IA; Retention of activity in the blood ([1]; FVB mice, 1 h p.i.): 81 ± 9 % IA; Retention of activity in the blood ([1]; FVB mice, 2 h p.i.): 74 ± 16 % IA; Retention of activity in the blood ([1]; FVB mice, 4 h p.i.): 71 ± 11 % IA; Retention of activity in the blood ([1]; FVB mice, 8 h p.i.): 66 ± 10 % IA; Retention of activity in the blood ([1]; FVB mice, 24 h p.i.): 45 ± 7 % IA; Retention of activity in the blood ([1]; FVB mice, 48 h p.i.): 28 ± 5 % IA; Retention of activity in the blood ([1]; FVB mice, 72 h p.i.): 19 ± 2 % IA; Retention of activity in the blood ([1]; FVB mice, 120 h p.i.): 7 ± 2 % IA; Retention of activity in the blood ([1]; FVB mice, 144 h p.i.): 5 ± 1 % IA; Retention of activity in the blood ([1]; FVB mice, 168 h p.i.): 3 ± 1 % IA; Half-Life Phase a [1, 2]: 0.5 h; Half-Life Phase b [1, 2]: 34 h; Time to Reach 50% IA (T50%IA) ([1]; FVB mice, i.v.): ~ 24 h; Time to Reach 50% IA (T50%IA) ([1]; FVB mice, i.v., listed as 3): ~24 h; Blood AUC0–7days ([1]; FVB mice, i.v., decay-corrected, over 7 days): 3617 % IA× h; % Phase a ([1]; FVB mice, i.v., share of Phase a in blood excretion curve): 23%; % Phase b ([1]; FVB mice, i.v., share of Phase b in blood excretion curve): 77%
O=C(O)CN1CCN(CC(=O)O)CCN(CC(=O)NCCC(=O)N[C@@H](CCCCNC(=O)CCCc2ccc(I)cc2)C(=O)O)CCN(CC(=O)O)CC1.[177Lu] [[^177Lu]Lu-DOTA-ALB-1]	1.0	33%	67%	1500 % IA× h	0.006 h	16 h	–	–
CN1c2c(nc(N)[nH]c2=O)NCC1CNc1ccc(C(=O)NC(CCC(=O)NC(CCCCNC(=O)CN2CCN(CC(=O)[O-])CCN(CC(=O)[O-])CCN(CC(=O)[O-])CC2)C(=O)NC(CCCCNC(=O)c2ccc(CNC(=O)CCCc3ccc(I)cc3)cc2)C(=O)O)C(=O)O)cc1.[177Lu+3] (stereo not drawn) [[^177Lu]Lu-6S-RedFol-3]	–	–	–	–	–	–	2.8 nM	–
CN1c2c(nc(N)[nH]c2=O)NC[C@H]1CNc1ccc(C(=O)N[C@@H](CCC(=O)N[C@@H](CCCCNC(=O)CN2CCN(CC(=O)O)CCN(CC(=O)O)CCN(CC(=O)O)CC2)C(=O)N[C@@H](CCCCNC(=O)c2ccc(CNC(=O)CCCc3ccc(I)cc3)cc2)C(=O)O)C(=O)O)cc1 [[^177Lu]Lu-6R-RedFol-3, metal not drawn]	–	–	–	–	–	–	4.7 nM	–
CN1c2c(nc(N)[nH]c2=O)NC[C@H]1CNc1ccc(C(=O)N[C@@H](CCC(=O)N[C@@H](CCCCNC(=O)CN2CCN(CC(=O)O)CCN(CC(=O)O)CCN(CC(=O)O)CC2)C(=O)N[C@@H](CCCCNC(=O)CCCCc2ccc(I)cc2)C(=O)O)C(=O)O)cc1 [[^177Lu]Lu-6R-RedFol-24, metal not drawn]	–	–	–	–	–	–	4.7 nM	–
CN1c2c(nc(N)[nH]c2=O)NC[C@H]1CNc1ccc(C(=O)N[C@@H](CCC(=O)N[C@@H](CCCCNC(=O)CN2CCN(CC(=O)O)CCN(CC(=O)O)CCN(CC(=O)O)CC2)C(=O)N[C@@H](CCCCNC(=O)c2ccc(CNC(=O)CCCCc3ccc(I)cc3)cc2)C(=O)O)C(=O)O)cc1 [[^177Lu]Lu-6R-RedFol-25, metal not drawn]	–	–	–	–	–	–	3.6 nM	–
CN1c2c(nc(N)[nH]c2=O)NCC1CNc1ccc(C(=O)NC(CCC(=O)NC(CCCCNC(=O)CN2CCN(CC(=O)[O-])CCN(CC(=O)[O-])CCN(CC(=O)[O-])CC2)C(=O)NC(CCCCNC(=O)c2ccc(CNC(=O)CCCCc3ccc(I)cc3)cc2)C(=O)O)C(=O)O)cc1.[177Lu+3] (stereo not drawn) [[^177Lu]Lu-6S-RedFol-25]	–	–	–	–	–	–	2.2 nM	–
O=C(O)CN1CCN(CC(=O)O)CCN(CC(=O)NCCC(=O)N[C@@H](CCCCNC(=O)CCCCc2ccc(I)cc2)C(=O)O)CCN(CC(=O)O)CC1.[177Lu] [[^177Lu]Lu-DOTA-ALB-24]	0.08	99%	1%	119 % IA× h	0.8 h	8.9 h	–	–
